Assay results as given in ChEMBL document CHEMBL2040788, “Expanded Utility of the β-Glucuronide Linker: ADCs That Deliver Phenolic Cytotoxic Agents” (ACS Med Chem Lett, 2010).

Experiments:
CAKI-1 = assay: Cytotoxicity against CD30 deficient human Caki1 cells expressing CD70 after 96 hrs; type: functional, cell-based; settings: CAKI-1, 96 h
[1] = Cytotoxicity against CD70 deficient human L540cy cells expressing CD30 after 96 hrs; type: functional, cell-based
[2] = Chemical stability of the compound; type: physicochemical

C=C(C)CC(OC)[C@H](O)C(=O)N[C@@H](OC)[C@@H]1C[C@@H](O)C(C)(C)[C@@H](C[C@H](O)[C@@H](C)[C@H]2Cc3c(C)c(O)cc(O)c3C(=O)O2)O1 (stereo partly drawn) [IRCINIASTATIN A]
IC50 (CAKI-1): 0.3 nM | IC50 [1]: 0.7 nM | Stability [2]: Stable
